Entries after “also recorded” stand apart in the source; their conditions may differ. Like-named read-outs stand apart in the source and are kept apart here.
Key:
[1] = tested on: A2780 cells; experiment: MTT cytotoxicity assay, A2780; assay type: cell-based, human; conditions: A2780, 72 h exposure, MTT; read-out: IC50 (median growth inhibitory concentration)
Experimental: (§1) Platinum(IV) complexes were dissolved in DMSO to stock solutions of 1 mg/mL just before the experiment, and a calculated amount of drug solution was added to the cell growth medium to a final solvent concentration of 0.5%, which had no discernible effect on cell killing. Cisplatin (CDDP) and oxaliplatin (OXP) were dissolved just before the experiment in a 0.9% NaCl solution.
(§2) Human prostate adenocarcinoma (PC3) cells were obtained from European Collection of Cell Cultures (ECACC, Salisbury, UK). Human ovarian cancer cell lines A2780 and its cisplatin resistant variant, A2780cisR, were kindly provided by Prof.
(§3) Cancer Res. 1988, 48, 589-601]. […] Triplicate cultures were established for each treatment.

[2] = tested on: A2780cisR cells; experiment: MTT cytotoxicity assay, A2780cisR (cisplatin resistant); assay type: cell-based, human; conditions: A2780cisR, 72 h exposure, MTT; read-out: IC50 (median growth inhibitory concentration)
Experimental: as §1, §2, §3

[3] = tested on: MCF-7 cells; experiment: MTT cytotoxicity assay, MCF-7; assay type: cell-based, human; conditions: MCF-7, 72 h exposure, MTT; read-out: IC50 (median growth inhibitory concentration)
Experimental: (§4) Cisplatin (CDDP) and oxaliplatin (OXP) were dissolved just before the experiment in a 0.9% NaCl solution.
as §2
(§5) Triplicate cultures were established for each treatment.

[4] = tested on: A549 cells; experiment: MTT cytotoxicity assay, A549; assay type: cell-based, human; conditions: A549, 72 h exposure, MTT; read-out: IC50 (median growth inhibitory concentration)
Experimental: as §4, §2, §5

[5] = tested on: HCT-15 cells; experiment: MTT cytotoxicity assay, HCT-15; assay type: cell-based, human
Experimental: (§6) Cisplatin (CDDP) and oxaliplatin (OXP) were dissolved just before the experiment in a 0.9% NaCl solution. […]
as §3
(§7) MTT assay. […] Triplicate cultures were established for each treatment.
(§8) The two dimers, 3a and 3b, as well as compounds 1a and 2a were screened against six human cancer cell lines representative of lung (H157), colon (HCT-15), cervical (A431), ovarian (2008) and pancreatic (PSN1) cancers, along with melanoma (A375). Cytotoxicity was evaluated by means of the MTT test after 72 h of treatment and the in vitro antitumor potential of newly synthesized derivatives was compared to that of the reference metallo-drugs CDDP and OXP.

[6] = tested on: PC3 cells; experiment: MTT cytotoxicity assay, PC3; assay type: cell-based, human; conditions: PC3, 72 h exposure, read-out: IC50 (median growth inhibitory concentration)
Experimental: as §4, §2, §5

[7] = tested on: A498 cells; experiment: MTT cytotoxicity assay, A498; assay type: cell-based, human; conditions: A498, 72 h exposure, read-out: IC50 (median growth inhibitory concentration)
Experimental: as §1, §2, §3

[8] = tested on: BxPC3 cells; experiment: MTT cytotoxicity assay, BxPC3; assay type: cell-based, human; conditions: BxPC3, 72 h exposure, MTT; read-out: IC50 (median growth inhibitory concentration)
[9] = tested on: A375 cells; experiment: MTT cytotoxicity assay, A375; assay type: cell-based, human
Experimental: as §6, §3, §7, §8

[10] = tested on: nine cancer cell lines; experiment: MTT cytotoxicity, over the nine cancer cell lines
[11] = tested on: 2008 cells; experiment: MTT cytotoxicity assay, 2008; assay type: cell-based, human; conditions: 2008, 72 h, MTT
Experimental: as §7, §8

[12] = tested on: A431 cells; experiment: MTT cytotoxicity assay, A431; assay type: cell-based, human; conditions: A431, 72 h
Experimental: as §7, §8

[13] = tested on: H157 cells; experiment: MTT cytotoxicity assay, H157; assay type: cell-based, human; conditions: H157, 72 h
Experimental: as §7, §8

[14] = tested on: PSN1 cells; experiment: MTT cytotoxicity assay, PSN1; assay type: cell-based, human; conditions: PSN1, 72 h, MTT
Experimental: as §7, §8

[15] = tested on: HCT-15 spheroids; experiment: 3D spheroid APH assay, HCT-15; assay type: cell-based, human; conditions: HCT-15 spheroids, 72 h, APH test
Excerpt: (§9) Acid phosphatase (APH) assay. A modified APH assay, which is based on quantification of cytosolic acid phosphatase activity, was used for determining cell viability in spheroids. […] Triplicate cultures were established for each treatment. […] Evaluation was based on means from at least four independent experiments.
(§10) In order to improve the predictive capacity of the in vitro assays, we tested the activity in three three-dimensional (3D) cell cultures; human colon cancer cells, HCT-15, and human pancreatic cancer cells, KRAS wild type BxPC3 cells KRAS mutated PSN-1 cells. The cancer spheroids were treated with 3a and 3b for 72 h and the cell viability was assessed by means of the APH assay (Table 6). For comparison purposes, the cytotoxicities of CDDP and OXP were evaluated under the same experimental conditions.

[16] = tested on: BxPC3 spheroids; experiment: 3D spheroid APH assay, BxPC3; assay type: cell-based, human; conditions: 72 h, APH test
Excerpt: as §9, §10

[17] = tested on: PSN-1 spheroids; experiment: 3D spheroid APH assay, PSN-1; assay type: cell-based, human; conditions: PSN-1 spheroids, 72 h, APH test
Excerpt: as §9, §10

[18] = tested on: human embryonic kidney HEK293 cells; experiment: MTT cytotoxicity against non-tumor cells; assay type: cell-based
Experimental: as §7
The cytotoxic activity of derivatives 3a and 3b was also evaluated against non-tumor cells, namely human embryonic kidney HEK293 cells (Table 7). Both compounds 3a and 3b were more cytotoxic than CDDP.

[19] = tested on: Histone deacetylase (HDAC); experiment: Histone deacetylase assay (Fluor-de-Lys) in MCF-7 cells; assay type: cell-based, human
Experimental: Histone deacetylase activity was determined using Fluor-de-Lys® HDAC fluorometric activity assay kit (Enzo Life Sciences International, Inc., Plymount Meeting, Pa., U.S.A.). […] Fluorescence was measured using a Fluoroskan Ascent FL (Labsystem, Finland) plate reader, with excitation at 360 nm and emission at 460 nm. For comparison purpose, the HDAC activity was also measured in nuclear extracts of MCF-7-treated cells by means of the same fluorometric activity assay kit. In this latter case, MCF-7 nuclear extracts were obtained as follow: cell pellets were re-suspended in lysis buffer [Tris.HCl (10 mM, pH 8.0), KCl (60 mM), EDTA (1.2 mM), DTT (1 mM), PMSF (0.05 mM), NP-40 (0.05%)] and kept on ice for 10 min. Subsequently, samples were centrifuged at 1000 g and re-suspended in the nuclear extraction buffer [Tris.HCl (20 mM, (pH 8.0), NaCl (420 mM), MgCl2 (0.7 mM), EDTA (0.25 mM), glycerol (25%)] for 30 min at 4° C., and then centrifuged at 15000 g for 15 min at 4° C.
The complexes described here were specifically designed to release either VPA of PhB inside the cells in the hope that they will inhibit HDAC activity paving the way for more efficient DNA platination. Thus, in addition to measuring the levels of DNA platination, we also measured the ability of these pro-drugs to inhibit HDAC activity in cells. […] For comparison purposes, the HDAC inhibitory effect determined by tested complexes was also assayed in isolated nuclei of MCF-7 treated cells (FIG. 3B).
The HDAC activity was determined by the Fluor de Lys® Fluorescent Cellular Activity Assay (Enzo Life Sciences).
Also, MCF-7 cells were incubated for 24 h with increasing concentrations of compounds I-VIII and their HDAC activity was determined. The IC50 values for the inhibition of HDAC activity in the cells are depicted in FIG. 3C.

[20] = HCT-15, 72 h exposure, MTT (Table 1), read-out: IC50 (median growth inhibitory concentration)
[21] = A375, 72 h exposure, MTT (Table 1), read-out: IC50 (median growth inhibitory concentration)
[22] = read-out: average IC50 values for the nine cancer cell lines, mean over nine cell lines, 72 h MTT
[23] = HCT-15, 72 h, MTT (Table 5), read-out: IC50 (μM) ± S.D.
[24] = A375, 72 h, MTT (Table 5), read-out: IC50 (μM) ± S.D.

Row | Compound | IC50 [1] [µM] | IC50 [2] [µM] | IC50 [3] [µM] | IC50 [4] [µM] | IC50 [5, 20] [µM] | IC50 [6] [µM] | IC50 [7] [µM] | IC50 [8] [µM] | IC50 [9, 21] [µM] | IC50 [10, 22] [µM] | IC50 [5, 23] [µM] | IC50 [9, 24] [µM] | IC50 [12] [µM] | IC50 [14] [µM] | further results
1 | O=C(CCCc1ccccc1)[O][Pt]12([O]C(=O)CCCc3ccccc3)([NH]C3CCCCC3[NH]1)[O]C(=O)C(=O)[O]2 (stereo not shown) [VIII, [Pt(DACH)(C10H11O2)2(ox)]] | 0.9 ± 0.08 | 1.96 ± 0.44 | 2.28 ± 0.46 | 19.6 ± 3.22 | 12.5 ± 1.13 | 6.35 ± 1.19 | 9.32 ± 1.07 | 7.64 ± 1.15 | 0.64 ± 0.13 | 6.81 | – | – | – | – | –
2 | CC(=O)[O][Pt]([NH2])([NH2])([Cl])([Cl])[O]C(=O)CCCc1ccccc1 [VII, Ctc-[Pt(NH3)2(C2H3O2)(C10H11O2)Cl2]] | 0.65 ± 0.04 | 1.54 ± 0.27 | 3.43 ± 0.14 | 7.16 ± 1.11 | 5.17 ± 0.85 | 4.34 ± 1.25 | 8.42 ± 1.47 | 10.1 ± 1.69 | 6.25 ± 1.94 | 4.8 | – | – | – | – | factors more potent than cisplatin ([10]; in five out of the nine cell lines): 2.1-9 fold; IC50 ([10]; read-out: range of IC50 values over the cell lines, lowest-highest over nine cell lines): 0.65 to 10.1 µM
3 | Cc1c(C)c2c3c4c1=CC=C[N]4[Pt+2][N]3C=CC=2.N[C@H]1CCCC[C@@H]1N [[Pt(DACH)(56Phen)], reference compound] | – | – | – | – | – | – | – | – | – | – | 0.69 ± 0.11 | 1.12 ± 0.42 | 0.28 ± 0.08 | 0.25 ± 0.08 | IC50 [11]: 0.74 ± 0.12 µM; IC50 [13]: 0.16 ± 0.01 µM; IC50 [15]: 60.2 ± 2.92 µM; IC50 [16]: 100 ± 12.1 µM; IC50 [17]: 55.5 ± 9.75 µM; IC50 ([18]; HEK293 non-tumor cells, 72 h, MTT): 1.12 ± 0.87 µM; SI (selectivity index) ([18]; ratio between average IC50 of non-tumor cells and IC50 of malignant cells): 0.9
4 | c,c,t-[Pt(DACH)(56Phen)(PhBu)(Succ)]Cl2 [Compound 2a] | – | – | – | – | – | – | – | – | – | – | 6.25 ± 3.08 | 1.57 ± 0.16 | 4.15 ± 1.12 | 3.23 ± 1.12 | –
5 | CCCC(CCC)C(=O)O [VPA, valproic acid, reference compound] | – | – | – | – | – | – | – | – | – | – | – | – | – | – | IC50 ([19]; MCF-7, 24 h, increasing concentrations, read-out: IC50 for cellular inhibition of HDAC activity): ~8000 µM; cytotoxicity IC50 values (in words) ([10]; uncoordinated ligands): millimolar range; also recorded: mM range
6 | CC(/C=C/C(=O)NO)=C\[C@@H](C)C(=O)c1ccc(N(C)C)cc1 [TSA, trichostatin A] | – | – | – | – | – | – | – | – | – | – | – | – | – | – | inhibition of HDAC activity ([19]; MCF-7, 24 h incubation with IC50 concentrations): about 90%

Source: patent US20190290656A1, “PT(IV) PRODRUGS” (YISSUM RESEARCH DEVELOPMENT COMPANY OF THE HEBREW …, priority 2015, published 2019)
